Experimental findings from patent publication US20060106028A1, “Polycyclic aromatics and derivatives thereof and processes for their preparation” (priority 2004, published 2006) are described below.

≈ marks a conversion by molar mass, not a printed value. Bounds are passed on as bounds.

The test system of data set [1] is PC-3 (prostate adenocarcinoma). Briefly: In vitro tumor growth inhibition (GI50, propidium iodide). To be noted: 96 hrs. It counts as cell-based.
The test system of another data set is 36 cancer cell lines. Briefly: In vitro cytotoxic activity, mean of all cell lines of the panel. The format is cell-based. The conditions noted are these: mean over the 36 cell lines. As to the method: Culture conditions and activity evaluations of Compound 1 against 36 cancer cell lines were done as described below. Results were expressed as the concentration of drug which inhibits 50% of the cell growth (IC50, calculated using the formula: [Ti/C]×100=−50).
The compound was dissolved at 10 mM in DMSO. Dilution in vehicle to concentrations of 30, 10, 3, 1 and 0.3 μM were prepared immediately before assays. Depending on the cell line's growth characteristics, 4000-10000 cells were plated in two 96-wells pates (day 0) and incubated for 16 hours. The following day, propidium iodide was added to one of the two plates. Test compound was added to the second plate, as well as vehicle control, and cells further incubated for 96 hours. The compound was tested at each concentration and in triplicates. The equivalent cell number was determined after adding propidium iodide by measuring the signal by fluorescence (Ti for test article, C for control).

Data set [2] is described as follows: In vivo toxicity: single-dose maximum tolerated dose in CD1 mice. To be noted: mouse, other: i.v. or i.p. (intravenous or intraperitoneal), single-dose via i.v. or i.p. routes, 1% SDS formulation. As to the method:
Toxicity and therapeutic efficacy of polycyclic aromatic compounds can be determined by standard pharmaceutical procedures in cell cultures or experimental animals. Therapeutic efficacy is determined in animal models as described above and in the examples herein. Toxicity studies are done to determine the lethal dose for 10% of tested animals (LD10). Animals are treated at the maximum tolerated dose (MTD): the highest dose not producing mortality or greater than 20% body weight loss. The effective dose (ED) is related to the MTD in a given tumor model to determine the therapeutic index of the compound.
In vivo toxicity: With CD1 mice, the maximum tolerated dose (MTD) for a single-dose via i.v. or i.p. routes in 1% SDS formulation was ≧5 mg/kg. The acute toxicity in CD-1 nu/nlu mice of Compound 1 was also determined in 6% Tween/4.5% Glycocholate/5% EtOH formulation.

In a further data set the test system is CRL nu/nu mice. Briefly: Repeated dose toxicity in CRL nu/nu mice. It counts as in vivo. The protocol:
Repeated dose toxicity was evaluated in CRL nu/nu mice (6% Tween/4.5% Glycocholate/5% EtOH formulation). The MTTD (maximum total tolerated dose) was 25 mg/kg with a qd×4 dosage regimen.

Data set [3] in a line: In vivo pharmacokinetic profile (plasma levels). The arrangement: species or system CD-1 mice. The conditions noted are these: CD-1, mouse, 25 mg/kg single dose, CD1 female mice. As to the method: Pharmacokinetic profile of Compound 1 was determined in CD-1 mice (FIG. 1). CD1 female mice (6 weeks of age) received a single intravenous or intraperitoneal dose of Compound 1 (25 mg/kg; 5 mL/kg) in […]/4.5% Glycocholate/5% EtOH formulation. Blood was collected into EDTA-containing tubes by cardiac puncture. Quantification of Compound 1 plasma levels was done by high performance liquid chromatographic-mass spectrometric method. Cmax values represent the maximum observed plasma concentration and AUC represents the area under the plasma concentration versus time curve (Table 6).

In data set [4] the test system is Enterococcus faecalis VRE-1 (ATCC™ 29212). Briefly: Antibacterial activity, MIC (NCCLS M7-A5). The format is cell-based. To be noted: BHI+ medium, 35° C., 16 to 20 hours.
Data set [5] deals with Clostridium difficile (ATCC™ 9689). In words: Antibacterial activity, MIC (NCCLS M11-A5, anaerobic). The format is cell-based. The conditions noted are these: Clostridioides difficile; Brucella medium with hemin, vitamin K1 and 5% lysed horse blood; read-out: MIC. The protocol: Antibacterial activity of Compounds 1 and 2 (Table 7) was measured by determining the minimal inhibitory concentration (MIC) necessary to obtain a complete inhibition of bacteria growth in seven indicator strains, namely Staphylococcus aureus (ATCC™ 6538P), Staphylococcus aureus MRS3 (ATCC™ 700699), Enterococcus faecalis VRE-1 (ATCC™ 29212), Enterococcus faecalis VRE-2 (ATCC™ 51299), Escherichia coli (ATCC™ 25922), Streptococcus pneumoniae (LSPQ 3412) and Streptococcus pneumoniae PenR (LSPQ 3349). Indicator strains preparation and MIC determination were performed according to the National Committee for Clinical Laboratory Standards (NCCLS) guideline M7-A5 Methods for Dilution Antimicrobial Susceptibility Tests for Bacteria That Grow Aerobically; Approved Standard-Fifth Edition. (NCCLS document M7-A5, ISBN 1-56238-394-9; NCCLS, 940 West Valley Road, Suite 1400, Wayne, Pa. 19087-1898 USA), the content of which is incorporated herein by reference. MIC determination against C. difficile was performed according to National Committee for Clinical Laboratory Standards (NCCLS) guideline M11-A5 Methods for Antimicrobial Susceptibility Testing of Anaerobic Bacteria.
Compounds 1 and 2 were prepared as 100× stock solutions in DMSO, with concentrations ranging from 3.2 mg/mL to 0.003 mg/mL (a two-fold dilution series over 11 points). An aliquot of each 100× stock solution was diluted 50-fold in test medium described below to give a set of eleven (11) 2× solutions. 50 μL of each of the eleven 2× solutions was aliquoted into the corresponding well of a 12-well row, with the final well reserved for medium alone control.
Vancomycin (Sigma™), used as positive control compound, was prepared as 2× stock solutions in Mueller-Hinton test medium ranging from 64 μg/mL to 0.06 μg/ml (a two-fold dilution series over 11 points). An aliquot of 50 μL corresponding to each concentration (at 2×) was then transferred to 96-well microplates to obtain a series of eleven two-fold dilutions.
An isolated colony of each of the indicator strains was used to inoculate tubes containing 2 mL of test medium. […]

Turning to `CCC(C)c1cc2c(=O)c3ccc4c(OC)c5c(=O)c6c(O)ccc(O)c6c(=O)c5c(O)c4c3c(=O)c2c(=O)n1CC(=O)N1CC(C(=O)O)NC(=O)C1C` (centres unmarked) [Compound 1], growth in data set [1] was halved (GI50) at 11.1 µM. The same compound had an IC50 with 36 cancer cell lines of 9.34 µM. In data set [2], the maximum tolerated dose (MTD) is ≥ 5 mg/kg. Further, in the data set on CRL nu/nu mice (qd×4 dosage regimen, 6% Tween/4.5% Glycocholate/5% EtOH formulation), the “MTTD (maximum total tolerated dose)” value is listed as 25 mg/kg. In the data set on CRL nu/nu mice (spleen and liver, repeated dosage), the “Organ findings following repeated dosage” value is “Adaptive hypertrophy and hyperplasia were observed in spleen and liver”. For the same compound, the AUC came out at 649 µg·h/mL in data set [3] (ip) and 1180 µg·h/mL in data set [3] (iv). The Cmax is 111 µg/mL in data set [3] (ip) and 227 µg/mL in data set [3] (iv). The values for the MIC in data set [4] and in data set [5] were 0.063 µg/mL (≈ 0.0854 µM) and 0.06 µg/mL (≈ 0.0813 µM), respectively.

As usually defined, the GI50 is the concentration giving 50% growth inhibition. Low values mean greater sensitivity of the cells, high ones lower sensitivity of the cells. What is called IC50 is the midpoint of a concentration-inhibition curve. Low readings indicate inhibition by little substance, high ones a need for much substance. By MTD is commonly meant the highest dose tested that stayed within the study's limit of toxicity. In general, AUC refers to concentration integrated over time. Read a low AUC as less exposure. A word on the Cmax: it is the maximum level reached in the sampled fluid or tissue. A word on the MIC: it is the lowest concentration that inhibits growth of the organism.
